Measurements as given in US20210207161A1, “PLANTS CONTAINING ELITE EVENT EE-GM5 AND METHODS AND KITS FOR IDENTIFYING SUCH EVENT IN BIOLOGICAL SAMPLES, AND TREATMENT THEREOF” (priority 2018, published 2021).

Tests used:
[1] = tested on: soybean plants containing event EE-GM5; assay: HPPD inhibitor herbicide tolerance field trials (maximum phytotoxicity); format: in vivo, soybean (Glycine max); conditions: 3rd year
[2] = tested on: soybean plants containing event EE-GM5; assay: as above; format: in vivo, soybean (Glycine max); conditions: for average maximum phytotoxicity value: several field trials across 2 years; for tolerance of plants with EE-GM5 to the herbicide: field, different locations over 2 years
Source text: Numbers in ( ) below a treatment give the number of trials included in the bar, the number on top of each bar gives the average maximum phytotoxicity value for that treatment. Treatments applied were: IFT=isoxaflutole, MST=mesotrione, PE=pre-emergence, P0=post-emergence (at V2-V3 stage, with adjuvants crop oil concentrate and ammonium sulfate added to increase herbicide activity). Rates shown are in gram active ingredient/hectare (4× dose in pre-emergence, 2× dose in post-emergence).
Tolerance of plants comprising EE-GM5 to HPPD inhibitor herbicides was tested at different locations in the field over 2 years. […] All post-emergence treatments were at the V2-V3 stage, with adjuvants crop oil concentrate and ammonium sulfate added to increase herbicide activity.
The “maximum phytotoxicity” as used herein is the highest phytotoxicity rating recorded at any observation during the duration of a trial (with 3 to 4 observations per trial). In existing weed control applications, a normal (lx) dose for isoxaflutole (IFT) in pre- or post-emergence application and for MST in post-emergence application is 105 gr/ha, and a normal (lx) dose for mesotrione in pre-emergence application is 210 gr/ha.
Also, in several field trials across 2 years, soybean plants with event EE-GM5 had good tolerance towards experimental HPPD inhibitor compound 2-methyl-N-(5-methyl-1,3,4-oxadiazol-2-yl)-3-(methylsulfonyl)-4-(trifluoromethyl)benzamide (U.S. Pat. No. 9,101,141) when applied pre-emergence at 400 gr ai/ha or post-emergence at 200 gr ai/ha, respectively (the average maximum phytotoxicity value for each treatment was below 20%). […] All post-emergence treatments were at the V2-V3 stage, with adjuvants crop oil concentrate and ammonium sulfate added to increase herbicide activity.
Also, plants with EE-GM5 when treated post-emergent (V2-V3) with topramezone at 36 g ai/ha (+COC and AMS) in 2 field trials in the US gave an average maximum phytotoxicity of 11%, showing EE-GM5 also confers good tolerance to this HPPD inhibitor.

[3] = applied post-emergence (V2-V3 stage, with adjuvants)

Question: How did the average maximum phytotoxicity ([1]; post-emergence at 150 g/ha, 3 field trial locations, Thorne background) turn out when `CSc1c(C(F)(F)F)ccc(C(=O)Nc2nnnn2C)c1Cl` [2-chloro-3-(methylsulfanyl)-N-(1-methyl-1H-tetrazol-5-yl)-4-(trifluoromethyl)benzamide] was run?
Answer: 13.3%

Question: And the average maximum phytotoxicity ([2]; post-emergence (V2-V3) at 100-150 gr ai/ha, with crop oil concentrate and ammonium sulfate)?
Answer: 20%

Question: What does the source list for `Cc1nnc(NC(=O)c2ccc(C(F)(F)F)c(S(C)(=O)=O)c2C)o1` [2-methyl-N-(5-methyl-1,3,4-oxadiazol-2-yl)-3-(methylsulfonyl)-4-(trifluoromethyl)benzamide]?
Answer: average maximum phytotoxicity value ([2]; post-emergence (V2-V3) at 200 gr ai/ha, with crop oil concentrate and ammonium sulfate): below 20%; average maximum phytotoxicity value ([2]; pre-emergence at 400 gr ai/ha): below 20%

Question: For `CS(=O)(=O)c1cc(C(F)(F)F)ccc1C(=O)c1cnoc1C1CC1` [isoxaflutole, (5-cyclopropyl-4-isoxazolyl)[2-(methylsulfonyl)-4-(trifluoromethyl)phenyl]methanone], which average maximum phytotoxicity ([1]; post-emergence (V2-V3 stage), 210 h/ha, 4 locations, EE-GM5 in Thorne background) is on record?
Answer: 10.9%

Question: And the maximum phytotoxicity ([1]; pre-emergence, 410 g/ha, one field trial location, EE-GM5 in Thorne background)?
Answer: 9%

Question: And the “tolerance of plants with EE-GM5 to the herbicide” value (“tolerance of plants with EE-GM5” for short) [2, 3]?
Answer: commercially relevant tolerance

Question: What about the “tolerance of plants with EE-GM5” value ([2]; applied pre-emergence) of the same molecule?
Answer: commercially relevant tolerance

Question: How did the “tolerance of plants with EE-GM5” value [2, 3] turn out when `CS(=O)(=O)c1ccc(C(=O)C2C(=O)CCCC2=O)c([N+](=O)[O-])c1` [mesotrione, 2-[4-(Methylsulfonyl)-2-nitrobenzoyl]cyclohexane-1,3-dione] was run?
Answer: commercially relevant tolerance

Question: And the “tolerance of plants with EE-GM5” value ([2]; applied pre-emergence)?
Answer: commercially relevant tolerance

Question: How did the average maximum phytotoxicity ([2]; post-emergent (V2-V3) at 36 g ai/ha (+COC and AMS), 2 field trials in the US) turn out when `Cc1c(C(=O)c2cnn(C)c2O)ccc(S(C)(=O)=O)c1C1=NOCC1` [topramezone, [3-(4,5-dihydro-3-isoxazolyl)-2-methyl-4-(methylsulfonyl)phenyl](5-hydroxy-1-methyl-1H-pyrazol-4-yl)methanone] was run?
Answer: 11%
